# Test results taken from patent US12484600B2, “Expanded foam for delivery of functional ingredients” (Boehringer Ingelheim Vetmedica GmbH, priority 2020, dated 2025).
# Test system: Staphylococcus aureus NCTC 8325-4
# Assay: Growth in LB broth flask culture with or without calcium chloride supplementation (visual growth, terminal plate count)
# Type: cell-based
# Conditions: for critical limit in combination with 0.5% calcium chloride: procedures as for Table 8
# Protocol: The test organism is Staphylococcus aureus NCTC 8325-4 as described in the methods and flask cultures are 100 ml of Luria-Bertani broth (LB broth) in 250 ml Erlenmeyer flasks. LB broth is used instead of brain Heart Infusion because it is more defined and limited in mineral content.
# A standard inoculum is grown as described in the methods section and adjusted to a viable cell count of […] by dilution in sterile saline, 0.1 ml of this is used to aseptically inoculate 100 ml volumes of test media—the inoculum being […] in the test flask.
# To determine the Minimum Inhibitory effect of hexametaphosphate a series of flasks with 100 ml of LB broth were each supplemented with concentrations of hexametaphosphate ranging from 0% W/W to 1% W/W, each flask was inoculated with a standard inoculum to achieve 1×10^3 viable bacterial in the flask, the flasks were incubated at 37° C. in a rotary incubator for 24 hours and evaluated visually for growth at that time.
# Following visual evaluation, 0.5% sterile calcium chloride was added to all flasks and incubation continued for a further 24 hours.
structure (smiles),measurement,setting,value
"[Ca+2].[Cl-].[Cl-] [Calcium, calcium chloride]",24 H CFU/ml,"0.5% Calcium, LB broth",>10^9 CFU/ml
same,effect on growth,0.5% calcium chloride supplement alone,no effect on growth
O=P([O-])([O-])O[C@H]1[C@H](OP(=O)([O-])O)[C@H](OP(=O)([O-])[O-])[C@H](OP(=O)([O-])O)[C@@H](OP(=O)([O-])[O-])[C@@H]1OP(=O)([O-])O.[Na+].[Na+].[Na+].[Na+].[Na+].[Na+].[Na+].[Na+].[Na+] [sodium phytate],critical limit in combination with 0.5% calcium chloride,,0.2%
O=c1ccn([C@@H]2O[C@H](COP(=O)(O)O)[C@@H](O)[C@H]2O)c(=O)[nH]1 [Uridine monophosphate],critical limit in combination with 0.5% calcium chloride,,inconclusive
O=C([O-])CC(O)(CC(=O)[O-])C(=O)[O-].[Na+].[Na+].[Na+] [tri-sodium citrate],critical limit in combination with 0.5% calcium chloride,,0.5%
"O=P1([O-])OP(=O)([O-])OP(=O)([O-])OP(=O)([O-])OP(=O)([O-])OP(=O)([O-])O1.[Na+].[Na+].[Na+].[Na+].[Na+].[Na+] [SHMP, sodium hexametaphosphate]",24 H CFU/ml,"0.27% SHMP, LB broth",~2 × 10^2 CFU/ml
same,residual viability,"0.27% hexametaphosphate, 24 hours",2×10^2
same,concentrations that remained inhibited post addition of calcium chloride,0.5% calcium chloride,at least 0.5%
same,concentrations with full growth 24 hours post addition of calcium chloride,0.5% calcium chloride,≤ 0.27%
same,effect on microbial growth under conditions of excess calcium,"0.5% calcium chloride, 0.27% SHMP, 0.375% functional emulsion",no inhibitory effect on microbial growth
same,concentrations at which growth was apparently inhibited,"LB broth, 24 hours, no calcium supplementation",≥ 0.05%
O=P([O-])([O-])O.[Na+].[Na+] [di-sodium orthophosphate],critical limit in combination with 0.5% calcium chloride,,0.75%
